Measurements: publication PMC7940609, “Hyperproduction of 3-hydroxypropionate by Halomonas bluephagenesis” (Nature Communications, 2021)

Key:
DhaTKp = molecular target: T1, DhaTKp (Klebsiella pneumoniae, UniProt Q7WRJ3); assay: specific activity, NADH formation; type: biochemical; settings: 150 mM 1,3-propanediol, 2 mM NAD+, 100 mM potassium carbonate pH 9.0, 30 mM ammonium sulfate, 37 °C
T1 construct: gene dhaT; C-terminal His-tag (plasmid p95), expressed in and purified from H. bluephagenesis TDΔdddA
T1 sequence (Q7WRJ3 1-387): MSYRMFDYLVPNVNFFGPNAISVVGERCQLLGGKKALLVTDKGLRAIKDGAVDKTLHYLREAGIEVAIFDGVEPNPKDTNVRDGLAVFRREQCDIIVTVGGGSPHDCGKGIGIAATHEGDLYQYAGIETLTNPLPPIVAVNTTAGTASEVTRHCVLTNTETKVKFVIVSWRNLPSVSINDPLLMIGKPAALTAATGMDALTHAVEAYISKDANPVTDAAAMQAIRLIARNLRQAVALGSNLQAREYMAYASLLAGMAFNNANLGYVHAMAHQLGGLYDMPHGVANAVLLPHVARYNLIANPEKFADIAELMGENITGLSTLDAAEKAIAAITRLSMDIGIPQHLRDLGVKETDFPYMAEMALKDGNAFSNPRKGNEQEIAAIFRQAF

DhaTPp = molecular target: T2, DhaTPp (Pseudomonas putida, UniProt Q88J46); assay: specific activity, NADH formation; type: biochemical; settings: 150 mM 1,3-propanediol, 2 mM NAD+, 100 mM potassium carbonate pH 9.0, 30 mM ammonium sulfate, 37 °C
T2 construct: gene dhaT; C-terminal His-tag (plasmid p92), expressed in and purified from H. bluephagenesis TDΔdddA
T2 sequence (Q88J46 1-394): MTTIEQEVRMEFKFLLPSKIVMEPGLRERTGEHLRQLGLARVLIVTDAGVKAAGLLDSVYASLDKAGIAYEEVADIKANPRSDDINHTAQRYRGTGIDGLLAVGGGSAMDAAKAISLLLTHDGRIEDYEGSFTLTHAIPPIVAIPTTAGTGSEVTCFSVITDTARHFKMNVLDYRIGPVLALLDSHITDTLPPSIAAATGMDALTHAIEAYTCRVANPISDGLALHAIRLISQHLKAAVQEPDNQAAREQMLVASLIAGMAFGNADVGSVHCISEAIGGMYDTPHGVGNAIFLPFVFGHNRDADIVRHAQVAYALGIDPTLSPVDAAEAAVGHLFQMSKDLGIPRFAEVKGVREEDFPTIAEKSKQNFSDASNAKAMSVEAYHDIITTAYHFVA

AldH = molecular target: T3, AldH (Escherichia coli, UniProt P23883); assay: specific activity, NADH formation; type: biochemical; settings: 2.0 mM 3HPA, 2.0 mM NAD+, 100 mM potassium phosphate pH 8.0, 1 mM DTT, 37 °C
T3 construct: gene puuC; N-terminal His-tag (plasmid p99), expressed in and purified from H. bluephagenesis TDΔdddA
T3 sequence (P23883 1-495): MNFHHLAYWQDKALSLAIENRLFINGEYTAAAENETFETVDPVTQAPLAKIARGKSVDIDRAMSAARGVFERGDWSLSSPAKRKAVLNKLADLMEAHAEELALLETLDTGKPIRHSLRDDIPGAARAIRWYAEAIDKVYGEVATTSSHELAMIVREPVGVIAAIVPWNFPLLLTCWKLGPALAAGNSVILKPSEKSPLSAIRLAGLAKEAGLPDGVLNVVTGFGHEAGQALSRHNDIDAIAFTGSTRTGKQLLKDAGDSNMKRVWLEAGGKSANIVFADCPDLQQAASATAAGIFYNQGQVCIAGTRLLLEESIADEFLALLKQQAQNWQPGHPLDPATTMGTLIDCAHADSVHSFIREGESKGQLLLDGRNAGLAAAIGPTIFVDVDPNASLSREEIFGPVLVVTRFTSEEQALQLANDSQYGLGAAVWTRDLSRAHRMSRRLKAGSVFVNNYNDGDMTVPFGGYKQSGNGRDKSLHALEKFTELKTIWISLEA

AldDPp = molecular target: T4, AldDPp (Pseudomonas putida, UniProt Q88QE9); assay: specific activity, NADH formation; type: biochemical; settings: 2.0 mM 3HPA, 2.0 mM NAD+, 100 mM potassium phosphate pH 8.0, 1 mM DTT, 37 °C
T4 construct: gene aldB-I; N-terminal His-tag (plasmid p98), expressed in and purified from H. bluephagenesis TDΔdddA
T4 sequence (Q88QE9 1-506): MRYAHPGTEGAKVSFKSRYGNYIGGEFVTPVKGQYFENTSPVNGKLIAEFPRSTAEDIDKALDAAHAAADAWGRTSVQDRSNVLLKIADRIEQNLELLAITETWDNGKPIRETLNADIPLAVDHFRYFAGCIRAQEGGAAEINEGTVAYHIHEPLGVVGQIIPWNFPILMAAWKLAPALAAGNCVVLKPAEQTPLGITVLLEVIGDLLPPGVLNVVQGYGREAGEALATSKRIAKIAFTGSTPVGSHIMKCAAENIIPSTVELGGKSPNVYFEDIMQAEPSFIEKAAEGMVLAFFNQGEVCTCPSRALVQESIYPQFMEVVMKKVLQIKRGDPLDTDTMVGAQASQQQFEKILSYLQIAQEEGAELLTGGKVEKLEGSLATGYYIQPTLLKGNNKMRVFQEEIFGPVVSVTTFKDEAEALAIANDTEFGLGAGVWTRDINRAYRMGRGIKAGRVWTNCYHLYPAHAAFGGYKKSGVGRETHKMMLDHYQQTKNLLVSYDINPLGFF

PuuC = molecular target: T5, PuuC (Klebsiella pneumoniae, UniProt A0A378BL98); assay: specific activity, NADH formation; type: biochemical; settings: 2.0 mM 3HPA, 2.0 mM NAD+, 100 mM potassium phosphate pH 8.0, 1 mM DTT, 37 °C
T5 construct: N-terminal His-tag (plasmid p100), expressed in and purified from H. bluephagenesis TDΔdddA
T5 sequence (A0A378BL98 1-495): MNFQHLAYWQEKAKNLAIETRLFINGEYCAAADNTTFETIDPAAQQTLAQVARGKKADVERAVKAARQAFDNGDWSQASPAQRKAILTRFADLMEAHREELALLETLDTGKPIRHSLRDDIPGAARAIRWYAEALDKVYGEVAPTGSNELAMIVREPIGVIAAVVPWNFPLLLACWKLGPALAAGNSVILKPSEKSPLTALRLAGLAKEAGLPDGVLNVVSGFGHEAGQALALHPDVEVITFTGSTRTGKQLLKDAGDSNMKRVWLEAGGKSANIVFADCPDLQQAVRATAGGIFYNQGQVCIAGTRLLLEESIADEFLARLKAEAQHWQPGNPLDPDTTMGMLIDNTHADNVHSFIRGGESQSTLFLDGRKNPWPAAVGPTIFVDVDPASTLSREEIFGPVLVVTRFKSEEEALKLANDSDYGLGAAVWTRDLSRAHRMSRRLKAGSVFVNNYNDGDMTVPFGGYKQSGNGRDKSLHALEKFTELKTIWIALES

purified protein = substrate: O=CCCO; assay: purified protein; type: biochemical, Halomonas sp. TD01; settings: 2 mM NAD+, 50 mM potassium phosphate pH 8.0, 1.0 mM DTT, 37 °C

OCCCO [1,3-propanediol]
specific activity, NADH formation (DhaTKp): higher than the alcohol dehydrogenase of P. putida DhaTPp and K. pneumoniae DhaTKp
specific activity, NADH formation (DhaTPp): higher than the alcohol dehydrogenase of P. putida DhaTPp and K. pneumoniae DhaTKp

O=CCCO [3HPA]
specific activity, NADH formation (AldH): four different aldehyde dehydrogenases (AldDHb, AldDPp, AldH, and PuuC) were analyzed
specific activity, NADH formation (AldDPp): four different aldehyde dehydrogenases (AldDHb, AldDPp, AldH, and PuuC) were analyzed
specific activity, NADH formation (PuuC): four different aldehyde dehydrogenases (AldDHb, AldDPp, AldH, and PuuC) were analyzed

B1: AldDHb (Halomonas sp. TD01) (protein)
chain: MIYANPGDAGSVVSFEKRFGNYIGGEFVPPVNGQYFDNISPVNGQVFCEIPRSSAEDIEKALDAAHKAAPAWGKTSVQERSNILLKIADRLEQNLEMLAVAETWDNGKAVRETLNADIPLAVDHFRYFAGCLRSQEGTAADIDANTVAYHFHEPLGVVGQIIPWNFPILMAAWKLGPALAAGNCVILKPAEQTPASILKVMEVIGDLLPPGVLNVVNGFGAEAGQALATSKRIAKIAFTGSTPVGSHILKCAAENIIPSTVELGGKSPNIYFADIMNAEPTFIDKAVEGLVLAFFNQGEVCTCPSRALIQESMYDEFMAKVVERTKTIKRGNPLDTDVQVGAQASQEQFDKIMSYMDIARDEGAEFLAGGDKESLDDSINGGYYIQPTLLKGNNKMRVFQEEIFGPVVAVTTFKDEEEALAIANDTEFGLGAGVWSRDINVAFRMGRGIQAGRVWTNCYHQYPAHAAFGGYKKSGVGRETHKVALEHYQQTKNLLVSYDINPLGFF
notes: 506 residues, C-terminal His-tag (plasmid p91), expressed in and purified from H. bluephagenesis TDΔdddA
Km (purified protein): 0.05 ± 0.002 mM
kcat (purified protein): 3.38 ± 0.09 s⁻¹
kcat/Km (purified protein): 67400 ± 797 M⁻¹ s⁻¹
